Here are results for 1 compound from paper PMC5000756, “Involvement of Three Esterase Genes from Panonychus citri (McGregor) in Fenpropathrin Resistance” (International Journal of Molecular Sciences, 2016).

This assay concerns the target T1, PcE1 (Panonychus citri, UniProt D7NHW8).
T1 construct: ORF in pFastBac HTA, baculovirus-infected Sf9 cells; supernatant of cell homogenate
T1 sequence (D7NHW8 19-550): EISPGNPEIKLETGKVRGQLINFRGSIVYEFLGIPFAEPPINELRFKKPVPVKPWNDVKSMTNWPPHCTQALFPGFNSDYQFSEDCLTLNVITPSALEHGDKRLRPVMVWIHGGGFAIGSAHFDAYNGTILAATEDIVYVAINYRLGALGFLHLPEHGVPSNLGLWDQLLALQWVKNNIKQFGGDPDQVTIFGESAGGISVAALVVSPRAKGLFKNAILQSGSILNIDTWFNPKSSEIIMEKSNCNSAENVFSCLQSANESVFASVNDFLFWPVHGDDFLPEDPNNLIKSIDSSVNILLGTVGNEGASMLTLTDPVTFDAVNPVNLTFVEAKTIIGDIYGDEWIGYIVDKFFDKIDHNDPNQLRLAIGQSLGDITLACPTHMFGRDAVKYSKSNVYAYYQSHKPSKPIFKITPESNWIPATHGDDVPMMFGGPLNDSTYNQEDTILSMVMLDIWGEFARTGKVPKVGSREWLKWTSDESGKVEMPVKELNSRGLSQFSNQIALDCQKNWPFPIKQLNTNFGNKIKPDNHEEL
The assay can be described thus: spectrophotometric, fast blue coupling, […] nm. Type of assay: biochemical. Conditions: Sf9 cell lysate versus GFP control; pH 7.0, 30 °C.

`CC(=O)Oc1cccc2ccccc12` [α-naphthyl acetate]: the “spectrophotometric, fast blue coupling, 600 nm” value is on record as “All recombinant proteins showed significant catalytic activities when α-NA was used as the substrate”.
